Target: T1, human α7 receptor (Homo sapiens, UniProt P36544)
T1 construct: host or cells: rat GH4C1 cell line
Experiment: α7 NNR flux assay (FDSS Ca assay, Calcium-4 dye, positive allosteric modulation of acetylcholine response)
Type: cell-based
Settings: human α7 receptor stably expressed in rat GH4C1 cell line; acetylcholine 20 μM (~EC100); % modulation relative to reference PNU-120596 set to 100%
Protocol: The nicotinic acetylcholine receptor α7 is a calcium-permeable ion channel, whose activity can be measured by over expression in mammalian cells or oocytes in this version of the assay, the human α7 receptor is stably expressed in the rat GH4C1 cell line. The assay was used to identify positive allosteric modulators (PAMs) of the α7 receptor. Activation of the channel was measured by loading cells with the calcium-sensitive fluorescent dye Calcium-4 (Assay kit from Molecular Devices), and then measuring real-time changes in fluorescence upon treatment with test compounds.
The cell line ChanClone GH4C1-nAChRalpha7 from Genionics was seeded from frozen stock in 384-well plates in culture media 2-3 days before experiment to form an approximately 80% confluent layer on the day of experiment.
Two or three days before the experiment the cells were seeded in 384 well plates from Greiner bio-one (781946, CELLCOAT, Poly-D-Lysine, black, μClear).
The cells were seeded in 384 well plates with 30 μL/well (30000 cells/well) while stirring the cell suspension or otherwise preventing the cells from precipitating.
The loading buffer was 5% v/v Calcium-4 Kit and 2.5 mM Probenecid in assay buffer.
Culture media were removed from the cell plates and 20 μL loading buffer was added in each well. The cell plates were placed in trays and incubated 90 minutes in the incubator (37° C.). Thereafter the plates were incubated 30 minutes at room temperature, still protected from light.
The assay buffer was HBSS with 20 mM HEPES, pH 7.4 and 3 mM CaCl2.
200 nL 10 mM compound solution in DMSO was diluted in 50 μL assay buffer. The final test concentrations in the cell plates were 20-10-5-2.5-1:25-0.625-0.312-0.156-0.078-0.039 μM. Assay buffer and 3 μM PNU-120596 were used for control.
The agonist acetylcholine was added to a final concentration of 20 μM (˜EC100).
In the FDSS7000 the Ex480-Em540 was measured with 1 second intervals. The baseline was made of 5 frames before addition of test compounds, and 95 frames more were made before addition of acetylcholine. The measurement stopped 30 frames after the 2nd addition. Raw data for each well were collected as “the maximum fluorescence count” in the interval 100-131 seconds and as “the average fluorescence count” in the interval 96-100 seconds. The positive allosteric modulation in the 2nd addition was the enhancement of agonist response with test compound compared to agonist alone.
Results were calculated as % modulation of test compound compared to the reference PNU-120596 set to 100%.

T1 sequence (P36544 23-502): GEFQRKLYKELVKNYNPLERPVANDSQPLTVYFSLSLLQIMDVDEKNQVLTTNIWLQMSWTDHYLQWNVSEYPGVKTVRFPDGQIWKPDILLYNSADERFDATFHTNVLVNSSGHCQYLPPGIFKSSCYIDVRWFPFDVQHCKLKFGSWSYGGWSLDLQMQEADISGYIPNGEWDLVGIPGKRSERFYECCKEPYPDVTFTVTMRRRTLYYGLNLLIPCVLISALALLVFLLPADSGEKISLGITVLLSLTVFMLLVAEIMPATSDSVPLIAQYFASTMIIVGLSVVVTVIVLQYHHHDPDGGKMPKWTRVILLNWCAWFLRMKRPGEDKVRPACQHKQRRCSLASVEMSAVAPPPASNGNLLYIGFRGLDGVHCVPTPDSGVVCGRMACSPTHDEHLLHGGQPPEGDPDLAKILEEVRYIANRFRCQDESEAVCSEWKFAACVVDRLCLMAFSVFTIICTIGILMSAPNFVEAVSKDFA

SMILES	EC50 [nM]
Cc1ccc([C@H](C)NC(=O)[C@H]2C[C@@H]2c2ccccc2)nc1 [Compound 2, (1S,2S)-2-Phenyl-cyclopropanecarboxylic acid [(S)-1-(5-methyl-pyridin-2-yl)-ethyl]-amide]	5600
[2H]C([2H])([2H])COc1ccc([C@H](CO)NC(=O)[C@H]2C[C@@H]2c2ccc(F)cc2)cn1 [Compound 35, (1S,2S)-2-(4-Fluoro-phenyl)-cyclopropanecarboxylic acid [(R)-1-(6-(2,2,2-d3)-ethoxy-pyridin-3-yl)-2-hydroxy-ethyl]-amide]	710
C[C@H](NC(=O)[C@H]1C[C@@H]1c1ccccc1)c1ccc(Cl)nc1 [Compound 18, (1S,2S)-2-Phenyl-cyclopropanecarboxylic acid [(S)-1-(6-chloro-pyridin-3-yl)-ethyl]-amide]	3700
[2H]C([2H])([2H])COc1ccc([C@H](CO)NC(=O)[C@H]2C[C@@H]2c2ccccc2)cn1 [Compound 31, (1S,2S)-2-Phenyl-cyclopropanecarboxylic acid [(R)-1-(6-(2,2,2-d3)-ethoxy-pyridin-3-yl)-2-hydroxy-ethyl]-amide]	1700
CCOc1ccc([C@H](COC)NC(=O)[C@H]2C[C@@H]2c2ccccc2)cn1 [Compound 46, (1S,2S)-2-Phenyl-cyclopropanecarboxylic acid [(R)-1-(6-ethoxy-pyridin-3-yl)-2-methoxy-ethyl]-amide]	460
C[C@H](NC(=O)[C@H]1C[C@@H]1c1ccccc1)c1cnc2c(c1)OCCO2 [Compound 16, (1S,2S)-2-Phenyl-cyclopropanecarboxylic acid [(S)-1-(2,3-dihydro-[1,4]dioxino[2,3-b]pyridin-7-yl)-ethyl]-amide]	6800
O=C(N[C@@H](CO)c1ccc(C(F)(F)F)nc1)[C@H]1C[C@@H]1c1ccccc1 [Compound 22, (1S,2S)-2-Phenyl-cyclopropanecarboxylic acid [(R)-2-hydroxy-1-(6-trifluoromethyl-pyridin-3-yl)-ethyl]-amide]	5500
CCOc1cc([C@H](C)NC(=O)[C@H]2C[C@@H]2c2ccccc2)ccn1 [Compound 12, (1S,2S)-2-Phenyl-cyclopropanecarboxylic acid [(S)-1-(2-ethoxy-pyridin-4-yl)-ethyl]-amide]	1200
COc1ccc([C@H](C)NC(=O)[C@H]2C[C@@H]2c2ccccc2)cn1 [Compound 3, (S, 2S)-2-Phenyl-cyclopropanecarboxylic acid-[(S)-1-(6-methoxy-pyridin-3-yl)-ethyl]-amide]	5800
COC[C@H](NC(=O)[C@H]1C[C@@H]1c1ccccc1)c1ccc(O[C@@H]2CCOC2)nc1 [Compound 47, (1S,2S)—N-[(1R)-2-methoxy-1-[6-[(3R)-tetrahydrofuran-3-yl]oxy-3-pyridyl]-ethyl]-2-phenyl-cyclopropanecarboxamide]	1000
C[C@H](NC(=O)[C@H]1C[C@@H]1c1ccccc1)c1ccc(OC2COC2)nc1 [Compound 19, (1S,2S)-2-Phenyl-cyclopropanecarboxylic acid {(S)-1-[6-(oxetan-3-yloxy)-pyridin-3-yl]-ethyl}-amide]	2400
C[C@H](NC(=O)[C@H]1C[C@@H]1c1ccccc1)c1cnc2c(c1)OCO2 [Compound 15, (1S,2S)-2-Phenyl-cyclopropanecarboxylic acid ((S)-1-[1,3]dioxolo[4,5-b]pyridin-6-yl-ethyl)-amide]	5600
C[C@H](NC(=O)[C@H]1C[C@@H]1c1ccccc1)c1ccc(OCC#N)nc1 [Compound 20, (1S,2S)-2-Phenyl-cyclopropane carboxylic acid [(S)-1-(6-cyanomethoxy-pyridin-3-yl)-ethyl]-amide]	2000
C[C@H](NC(=O)[C@H]1C[C@@H]1c1ccccc1)c1ccc(C#N)nc1 [Compound 5, (1S,2S)-2-Phenyl-cyclopropanecarboxylic acid [(S)-1-(6-cyano-pyridin-3-yl)-ethyl]-amide]	7700
CCOc1ccc([C@H](CO)NC(=O)[C@H]2C[C@@H]2c2ccccc2)nc1 [Compound 52, (1S,2S)-2-Phenyl-cyclopropanecarboxylic acid [(R)-1-(5-ethoxy-pyridin-2-yl)-2-hydroxy-ethyl]-amide]	2000
C[C@H](NC(=O)[C@H]1C[C@@H]1c1ccccc1)c1ccc(O[C@@H]2CCOC2)nc1 [Compound 14, (1S,2S)-2-Phenyl-cyclopropanecarboxylic acid [(S)-1-{6-[(R)-(tetrahydro-furan-3-yl)oxy]-pyridin-3-yl]-ethyl}-amide]	1600
CCCOc1ccc([C@H](CO)NC(=O)[C@H]2C[C@@H]2c2ccccc2)cn1 [Compound 21, (1S,2S)-2-Phenyl-cyclopropanecarboxylic acid [(R)-2-hydroxy-1-(6-propoxy-pyridin-3-yl)-ethyl]-amide]	640
C[C@H](NC(=O)[C@H]1C[C@@H]1c1ccccc1)c1ccc(OCC(F)(F)F)nc1 [Compound 10, (1S,2S)-2-Phenyl-cyclopropanecarboxylic acid {(S)-1-[6-(2,2,2-trifluoro-ethoxy)-pyridin-3-yl]-ethyl}-amide]	1900
CC(C)Oc1ccc([C@H](CO)NC(=O)[C@H]2C[C@@H]2c2ccccc2)cn1 [Compound 26, (1S,2S)-2-Phenyl-cyclopropanecarboxylic acid [(R)-2-hydroxy-1-(6-isopropoxy-pyridin-3-yl)-ethyl]-amide]	390

Test system: not given
Experiment: not given
Settings: not given

SMILES	melting point [°C]
C[C@H](NC(=O)[C@H]1C[C@@H]1c1ccccc1)c1ccc(OC2COC2)nc1 [Compound 19, (1S,2S)-2-Phenyl-cyclopropanecarboxylic acid {(S)-1-[6-(oxetan-3-yloxy)-pyridin-3-yl]-ethyl}-amide]	151 to 153
C[C@H](NC(=O)[C@H]1C[C@@H]1c1ccccc1)c1ccc(OCC#N)nc1 [Compound 20, (1S,2S)-2-Phenyl-cyclopropane carboxylic acid [(S)-1-(6-cyanomethoxy-pyridin-3-yl)-ethyl]-amide]	163 to 165

From patent publication US9889122B2, “Positive allosteric modulators of nicotinic acetylcholine receptor” (H. Lundbeck A/S, priority 2011, dated 2018)
